Where two headings read alike, the source gives them in different places.

Assay [1] deals with IL-13 induced STAT6 phosphorylation in BEAS-2B human lung epithelial cells. Description: AlphaScreen cellular JAK potency assay, BEAS-2B.
Assay [2] has as its system IL-4 induced STAT6 phosphorylation in THP-1 human monocytic cells. Briefly: Cellular JAK potency assay, THP-1.
In the next assay the target is JAK1 (Homo sapiens (Human), UniProt P23458). Briefly: LanthaScreen JAK biochemical assay (JAK1). On the technique in general: TR-FRET usually uses a lanthanide donor and a delayed reading to cut background.
Another assay deals with JAK2 (Homo sapiens (Human), UniProt O60674). Description: LanthaScreen JAK biochemical assay (JAK2).
[3] abbreviates: IL-13 induced STAT6 phosphorylation, BEAS-2B cells.
Where [4] appears, read: IL-4 induced STAT6 phosphorylation, THP-1 cells.
[5] abbreviates: Homo sapiens, THP-1, read-out: THP-1 IL4 pIC50 (converted).
Setting [6] is: Homo sapiens, BEAS-2B, read-out: BEAS2B pIC50 (converted).
[7] abbreviates: THP-1 cells, IL-4 induced STAT6 phosphorylation.
[8] abbreviates: BEAS-2B cells, IL-13 induced STAT6 phosphorylation.

JAK1, sequence (P23458 whole entry): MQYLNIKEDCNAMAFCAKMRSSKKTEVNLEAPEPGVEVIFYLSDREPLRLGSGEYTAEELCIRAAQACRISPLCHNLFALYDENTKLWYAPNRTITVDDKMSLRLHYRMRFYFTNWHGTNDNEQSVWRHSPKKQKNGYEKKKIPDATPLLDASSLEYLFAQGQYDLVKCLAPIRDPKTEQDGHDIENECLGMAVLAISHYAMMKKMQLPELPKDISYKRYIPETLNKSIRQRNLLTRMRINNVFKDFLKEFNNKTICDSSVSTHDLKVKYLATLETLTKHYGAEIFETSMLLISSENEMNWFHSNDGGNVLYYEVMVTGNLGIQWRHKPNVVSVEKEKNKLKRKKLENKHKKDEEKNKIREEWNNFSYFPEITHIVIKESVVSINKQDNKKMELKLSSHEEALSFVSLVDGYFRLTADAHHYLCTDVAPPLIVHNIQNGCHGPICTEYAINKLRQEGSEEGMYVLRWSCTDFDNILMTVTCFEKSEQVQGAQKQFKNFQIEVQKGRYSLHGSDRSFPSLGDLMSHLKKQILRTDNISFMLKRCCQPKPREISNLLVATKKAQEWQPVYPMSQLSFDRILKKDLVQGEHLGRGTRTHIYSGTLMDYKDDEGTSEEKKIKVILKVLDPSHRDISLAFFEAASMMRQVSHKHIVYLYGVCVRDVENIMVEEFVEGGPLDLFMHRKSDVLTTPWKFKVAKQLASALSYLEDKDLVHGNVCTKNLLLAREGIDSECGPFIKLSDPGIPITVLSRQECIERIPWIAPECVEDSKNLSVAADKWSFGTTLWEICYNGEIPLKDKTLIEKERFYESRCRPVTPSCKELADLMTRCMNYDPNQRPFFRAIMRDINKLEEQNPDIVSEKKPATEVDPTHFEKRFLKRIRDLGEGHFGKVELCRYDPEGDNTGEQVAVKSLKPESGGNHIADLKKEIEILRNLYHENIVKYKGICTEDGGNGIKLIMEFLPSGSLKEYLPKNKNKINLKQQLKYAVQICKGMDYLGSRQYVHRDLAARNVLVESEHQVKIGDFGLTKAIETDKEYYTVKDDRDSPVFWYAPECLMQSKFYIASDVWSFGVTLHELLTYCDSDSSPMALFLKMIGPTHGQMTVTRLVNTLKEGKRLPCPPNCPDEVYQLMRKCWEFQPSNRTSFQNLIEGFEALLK
JAK2, sequence (O60674 whole entry): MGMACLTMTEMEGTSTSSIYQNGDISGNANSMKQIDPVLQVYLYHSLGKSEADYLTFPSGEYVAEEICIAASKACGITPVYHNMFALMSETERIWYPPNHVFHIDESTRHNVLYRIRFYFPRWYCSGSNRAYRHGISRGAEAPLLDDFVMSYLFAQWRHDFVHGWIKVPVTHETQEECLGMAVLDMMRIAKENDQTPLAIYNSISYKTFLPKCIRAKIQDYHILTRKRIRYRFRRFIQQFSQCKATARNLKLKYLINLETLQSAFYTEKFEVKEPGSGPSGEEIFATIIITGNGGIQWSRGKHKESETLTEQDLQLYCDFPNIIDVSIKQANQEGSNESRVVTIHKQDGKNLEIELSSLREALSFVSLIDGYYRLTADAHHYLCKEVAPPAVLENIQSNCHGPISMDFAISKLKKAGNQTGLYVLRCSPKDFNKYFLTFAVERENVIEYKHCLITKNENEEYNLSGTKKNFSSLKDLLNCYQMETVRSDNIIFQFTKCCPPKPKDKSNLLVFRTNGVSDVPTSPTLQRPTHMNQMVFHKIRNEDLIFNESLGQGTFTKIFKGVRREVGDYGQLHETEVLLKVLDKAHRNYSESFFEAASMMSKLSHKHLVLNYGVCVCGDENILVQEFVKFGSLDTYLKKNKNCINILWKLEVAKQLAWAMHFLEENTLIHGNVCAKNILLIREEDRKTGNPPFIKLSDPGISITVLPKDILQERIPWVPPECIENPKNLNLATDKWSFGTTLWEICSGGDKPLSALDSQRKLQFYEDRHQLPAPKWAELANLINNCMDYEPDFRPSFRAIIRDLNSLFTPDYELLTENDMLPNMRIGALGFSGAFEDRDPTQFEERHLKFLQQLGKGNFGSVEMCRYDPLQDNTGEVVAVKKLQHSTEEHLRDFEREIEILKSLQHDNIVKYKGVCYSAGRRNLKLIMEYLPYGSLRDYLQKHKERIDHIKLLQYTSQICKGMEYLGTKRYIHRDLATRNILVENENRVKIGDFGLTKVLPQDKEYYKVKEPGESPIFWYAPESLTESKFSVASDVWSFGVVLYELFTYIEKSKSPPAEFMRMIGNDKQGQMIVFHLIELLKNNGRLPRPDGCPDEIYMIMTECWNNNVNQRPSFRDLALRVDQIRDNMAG

As for `Cc1cc(Nc2cc3ncccc3c(N[C@@H]3C[C@H]4CCC[C@@H](C3)N4Cc3ccc(C#N)nc3)n2)n[nH]1` [Example 1-54], the “BEAS2B pIC50” value in assay [1] (setting [3]) was “B (B represents a pEC50 value between 6.7 and 7.5 (EC50 between 200 nM and 32 nM))”.

For `Cc1cc(Nc2cc3ncccc3c(N[C@@H]3C[C@H]4CCC[C@@H](C3)N4S(=O)(=O)N3CCCC3)n2)n[nH]1` [Example 4-27], in assay [2] (setting [4]), the “THP-1 IL4 pIC50” value is recorded as “A (A represents a pEC50 value≥7.5 (EC50≤32 nM))”. In addition, the “BEAS2B pIC50” value in assay [1] (setting [3]) is on record as “A (A represents a pEC50 value≥7.5 (EC50≤32 nM))”.

As for `Cc1cc(Nc2cc3ncccc3c(N[C@@H]3C[C@H]4CCC[C@@H](C3)N4S(=O)(=O)N3CCC3)n2)n[nH]1` [Example 4-29], the “THP-1 IL4 pIC50” value in assay [2] (setting [4]) is “A (A represents a pEC50 value≥7.5 (EC50≤32 nM))”. Moreover, in assay [1] (setting [3]), the “BEAS2B pIC50” value was “A (A represents a pEC50 value≥7.5 (EC50≤32 nM))”. Also, the “JAK 1 (pKi)” value on JAK1 is reported as “A (A represents a pKi value≥10 (Ki≤0.1 nM))”.

On to `COc1ccc2c(N[C@@H]3C[C@H]4CC[C@@H](C3)N4CCCC#N)nc(Nc3cc(C)[nH]n3)cc2n1` [Example 5-2], for which the “THP-1 IL4 pIC50” value in assay [2] (setting [4]) is “B (B represents a pEC50 value between 6.7 and 7.5 (EC50 between 200 nM and 32 nM))”. Besides, the “BEAS2B pIC50” value in assay [1] (setting [3]) is “A (A represents a pEC50 value≥7.5 (EC50≤32 nM))”. For the same molecule, the “JAK 1 (pKi)” value on JAK1 is “B (B represents a pKi value between 9 and 10 (Ki between 1 nM and 0.1 nM))”.

For `COc1ccc2c(N[C@@H]3C[C@H]4CC[C@@H](C3)N4CC(C)C)nc(Nc3cc(C)[nH]n3)cc2n1` [Example 5-4], in assay [2] (setting [4]), the “THP-1 IL4 pIC50” value is “A (A represents a pEC50 value≥7.5 (EC50≤32 nM))”. Further, the “BEAS2B pIC50” value in assay [1] (setting [3]) was “A (A represents a pEC50 value≥7.5 (EC50≤32 nM))”. For the same molecule, the “JAK 1 (pKi)” value at JAK1 is “B (B represents a pKi value between 9 and 10 (Ki between 1 nM and 0.1 nM))”.

With `CCS(=O)(=O)N1[C@@H]2CC[C@H]1C[C@H](Nc1nc(Nc3cc(C)[nH]n3)cc3nc(CN4CCOCC4)ccc13)C2` [Example 5-16], the IC50 in assay [2] (setting [5]) and in assay [1] (setting [6]) was 31.6 to 200 nM throughout.

`C=CCOC(=O)N1[C@@H]2CC[C@H]1C[C@H](Nc1nc(Nc3cc(C)[nH]n3)cc3nc(CN4CCOCC4)ccc13)C2` [Example 5-17]: the “THP-1 IL4 pIC50” value in assay [2] (setting [4]) is “B (B represents a pEC50 value between 6.7 and 7.5 (EC50 between 200 nM and 32 nM))”. Also, the “BEAS2B pIC50” value in assay [1] (setting [3]) is “A (A represents a pEC50 value≥7.5 (EC50≤32 nM))”.

For `Cc1cc(Nc2cc3nc(CN4CCOCC4)ccc3c(N[C@@H]3C[C@H]4CC[C@@H](C3)N4S(=O)(=O)N3CCC3)n2)n[nH]1` [Example 5-21], the IC50 in assay [2] (setting [5]) and in assay [1] (setting [6]) was under 31.6 nM throughout.

As to `Cc1cc(Nc2cc3nc(CN4CCOCC4)ccc3c(N[C@@H]3C[C@H]4CCC[C@@H](C3)N4S(=O)(=O)c3cccnc3)n2)n[nH]1` [Example 5-27], the “THP-1 IL4 pIC50” value in assay [2] (setting [4]) is recorded as “A (A represents a pEC50 value≥7.5 (EC50≤32 nM))”. Moreover, the “BEAS2B pIC50” value in assay [1] (setting [3]) is reported as “A (A represents a pEC50 value≥7.5 (EC50≤32 nM))”.

Take `COc1cnc2cc(Nc3cc(C)[nH]n3)nc(N[C@@H]3C[C@H]4CC[C@@H](C3)N4CC(C)C)c2c1` [Example 6-14]: the “THP-1 IL4 pIC50” value in assay [2] (setting [7]) is recorded as “A (A represents a pEC50 value≥7.5 (EC50≤32 nM))”. For the same molecule, in assay [1] (setting [8]), the “BEAS2B pIC50” value was “A (A represents a pEC50 value≥7.5 (EC50≤32 nM))”. For the same molecule, the “JAK 1 (pKi)” value at JAK1 is “B (B represents a pKi value between 9 and 10 (Ki between 1 nM and 0.1 nM))”.

Turning to `COc1cnc2cc(Nc3cc(C)[nH]n3)nc(N[C@@H]3C[C@H]4CC[C@@H](C3)N4CCCF)c2c1` [Example 6-16], in assay [2] (setting [7]), the “THP-1 IL4 pIC50” value was “B (B represents a pEC50 value between 6.7 and 7.5 (EC50 between 200 nM and 32 nM))”. Further, the “BEAS2B pIC50” value in assay [1] (setting [8]) is “B (B represents a pEC50 value between 6.7 and 7.5 (EC50 between 200 nM and 32 nM))”. The “JAK 1 (pKi)” value at JAK1 was “B (B represents a pKi value between 9 and 10 (Ki between 1 nM and 0.1 nM))”.

For the molecule `COc1cnc2cc(Nc3cc(C)[nH]n3)nc(N[C@@H]3C[C@H]4CC[C@@H](C3)N4CC(F)(F)F)c2c1` [Example 6-17], the IC50 in assay [2] (setting [5]) and in assay [1] (setting [6]) was under 31.6 nM throughout. Further, the Ki at JAK1 (read-out: JAK 1 (pKi) (converted)) is 0.1 to 1 nM.

Consider `CCC(C)C(=O)N1[C@@H]2CC[C@H]1C[C@H](Nc1nc(Nc3cc(C)[nH]n3)cc3nccc(OC)c13)C2` (some centres unmarked) [Example 7-4], for which, in assay [2] (setting [7]), the “THP-1 IL4 pIC50” value is “B (B represents a pEC50 value between 6.7 and 7.5 (EC50 between 200 nM and 32 nM))”. The “BEAS2B pIC50” value in assay [1] (setting [8]) was “B (B represents a pEC50 value between 6.7 and 7.5 (EC50 between 200 nM and 32 nM))”. Further, the “JAK 1 (pKi)” value on JAK1 is “B (B represents a pKi value between 9 and 10 (Ki between 1 nM and 0.1 nM))”.

On to `COc1ccnc2cc(Nc3cc(C)[nH]n3)nc(N[C@@H]3C[C@H]4CC[C@@H](C3)N4C(=O)C(F)F)c12` [Example 7-5], for which the IC50 in assay [2] (setting [5]) and in assay [1] (setting [6]) was 31.6 to 200 nM each time. On JAK1, this molecule came in with a Ki of 0.1 to 1 nM.

On to `Cc1cc(Nc2nc(N[C@@H]3C[C@H]4CC[C@@H](C3)N4S(=O)(=O)c3cccnc3)c3cccnc3c2F)n[nH]1` [Example 8-4], for which, in assay [2] (setting [7]), the “THP-1 IL4 pIC50” value is “B (B represents a pEC50 value between 6.7 and 7.5 (EC50 between 200 nM and 32 nM))”. For the same molecule, the “BEAS2B pIC50” value in assay [1] (setting [8]) was “B (B represents a pEC50 value between 6.7 and 7.5 (EC50 between 200 nM and 32 nM))”. Besides, at JAK1, the “JAK 1 (pKi)” value is “B (B represents a pKi value between 9 and 10 (Ki between 1 nM and 0.1 nM))”.

With `Cc1cc(Nc2nc(N[C@@H]3C[C@H]4CC[C@@H](C3)N4S(=O)(=O)c3cncc(F)c3)c3cccnc3c2F)n[nH]1` [Example 8-5], the “THP-1 IL4 pIC50” value in assay [2] (setting [7]) was “B (B represents a pEC50 value between 6.7 and 7.5 (EC50 between 200 nM and 32 nM))”. Further, the “BEAS2B pIC50” value in assay [1] (setting [8]) was “A (A represents a pEC50 value≥7.5 (EC50≤32 nM))”. On JAK1, the “JAK 1 (pKi)” value is “B (B represents a pKi value between 9 and 10 (Ki between 1 nM and 0.1 nM))”.

Turning to `Cc1cnc2c(F)c(Nc3cc(C)[nH]n3)nc(N[C@@H]3C[C@H]4CCC[C@@H](C3)N4CCC#N)c2c1` [Example 8-21], the “JAK 2 (pKi)” value at JAK2 is “B (B represents a pKi value between 9 and 10 (Ki between 1 nM and 0.1 nM))”. For the same molecule, in assay [2] (setting [7]), the “THP-1 IL4 pIC50” value is “B (B represents a pEC50 value between 6.7 and 7.5 (EC50 between 200 nM and 32 nM))”. On JAK1, the “JAK 1 (pKi)” value was “B (B represents a pKi value between 9 and 10 (Ki between 1 nM and 0.1 nM))”.

Turning to `CCS(=O)(=O)N1[C@@H]2CCC[C@H]1C[C@H](Nc1nc(Nc3cc(C)[nH]n3)cc3ncccc13)C2` [Example 10, N^5-((1R,3s,5S)-9-(ethylsulfonyl)-9-azabicyclo[3.3.1]nonan-3-yl)-N^7-(5-methyl-1H-pyrazol-3-yl)-1,6-naphthyridine-5,7-diamine], the IC50 in assay [2] (setting [5]) and in assay [1] (setting [6]) was under 31.6 nM each time.

Regarding `Cc1cc(Nc2cc3nc(CN4CCOCC4)ccc3c(N[C@@H]3C[C@H]4CC[C@@H](C3)N4CC(F)(F)F)n2)n[nH]1` [Example 15, N^7-(5-methyl-1H-pyrazol-3-yl)-2-(morpholinomethyl)-N^5-((1R,3s,5S)-8-(2,2,2-trifluoroethyl)-8-azabicyclo[3.2.1]octan-3-yl)-1,6-naphthyridine-5,7-diamine], the IC50 in assay [2] (setting [5]) and in assay [1] (setting [6]) was under 31.6 nM each time.

Turning to `CNC(=O)CN1[C@@H]2CCC[C@H]1C[C@H](Nc1nc(Nc3cc(C)[nH]n3)cc3ncccc13)C2` [Example 17, N-methyl-2-((1R,3s,5S)-3-((7-((5-methyl-1H-pyrazol-3-yl)amino)-1,6-naphthyridin-5-yl)amino)-9-azabicyclo[3.3.1]nonan-9-yl)acetamide], the IC50 in assay [2] (setting [5]) and in assay [1] (setting [6]) was 31.6 to 200 nM each time.

Source of the values: patent US10072026B2, “Crystalline form of 3-((1R,3s,5S)-3-((7-((5-methyl-1H-pyrazol-3-yl)amino)-1,6-naphthyridin-5-yl)amino)-8-azabicyclo[3.2.1]octan-8-yl)propanenitrile” (priority 2015, dated 2018).
